Data on 5 compounds can be found in US6686363B2, “Cyclopropyl containing oxazolidinone antibiotics and derivatives thereof” (Kyorin Pharmaceutical Co., Ltd., priority 2001, dated 2004).

What all share (assay type): cell-based
In assay [1] the test system is Moraxella catarrhalis ATCC25238. As to the kind of experiment: MIC, agar dilution method on Mueller-Hinton agar. Particulars: 35C, 24 hours. As to the method: (§1) The following in vitro results were obtained based on an agar dilution method except for C. pneumoniae. The activity is presented as the minimum inhibitory concentration (MIC) S. aureus and M. catarrhalis were tested on Mueller-Hinton agar, using an approximate inoculum of 1×10^4 cfu/spot an incubation temperature of 35C for 24 hours. The MIC was defined as the lowest concentration at which no visible bacterial growth was observed.
In general terms: Agar dilution tests growth on a series of plates holding different concentrations.

Assay [2] relates to Staphylococcus aureus Smith. As to the kind of experiment: MIC, agar dilution method on Mueller-Hinton agar. The settings on record: 35C, 24 hours. The procedure:
as §1

Assay [3] deals with Staphylococcus aureus CR (chloramphenicol resistant). As to the kind of experiment: MIC, agar dilution method on Mueller-Hinton agar. Particulars: 35C, 24 hours. As to the method: as §1
Assay [4] concerns Staphylococcus aureus MR (methicillin resistant). As to the kind of experiment: MIC, agar dilution method on Mueller-Hinton agar. The settings on record: 35C, 24 hours. The procedure:
as §1

Assay [5] concerns Streptococcus pyogenes IID692. As to the kind of experiment: MIC, agar dilution method on Mueller-Hinton agar with 5% defibrinated horse blood. Particulars: 5% horse blood, 5% CO2, 35C, 24 hours. As to the method:
as §1
(§2) Streptococci and enterococci were tested on Mueller-Hinton agar supplemented with 5% defibrinated horse blood, using an approximate inoculum of 1×10^4 cfu/spot an incubation temperature of 35C in an atmosphere of 5% CO2 for 24 hours. The MIC was defined as the lowest concentration at which no visible bacterial growth was observed.

In assay [6] the test system is Streptococcus pneumoniae IID553. The assay is described as above. The settings on record: 5% horse blood, 5% CO2, 35C, 24 hours. As to the method:
as §1, §2

The test system of assay [7] is Enterococcus faecium VRQR (vancomycin resistant, quinolone resistant). Described as above. The settings on record: 5% horse blood, 5% CO2, 35C, 24 hours. The procedure:
as §1, §2

Assay [8] concerns Streptococcus pneumoniae PRQR (penicillin resistant, quinolone resistant). The description is as above. Particulars: 5% horse blood, 5% CO2, 35C, 24 hours. The procedure: as §1, §2
For assay [9], the system named is Chlamydia pneumoniae ATCCVR-1360. Nature of the assay: MIC, chlamydial inclusion assay in infected HeLa 229 cells. Particulars: ATCCVR1360; Chlamydia pneumoniae ATCCVR-1360 in HeLa 229 cells; 72 hours, lowest concentration with no inclusion. As to the method: C. pneumoniae was tested using minimum essential medium supplemented with 10% heat-inactivated fetal bovine serum, 2 mM L-glutamine, […] cycloheximide and non essential amino acid. HeLa 229 cells were inoculated with 10^4 inclusion-forming units of C. pneumoniae strain per mL. Infected cells were incubated with test compounds in complete medium at 35C in an atmosphere of 5% CO2 for 72 hours. […] The MIC was defined as the lowest concentration at which no inclusion was observed.

Molecules are shown by their SMILES. Values after ≈ are worked out from the molar mass of the structure shown.

In the case of `CC(=O)NC[C@H]1CN(c2ccc(N3CCOCC3)c(F)c2)C(=O)O1` [Linezolid, reference compound], the MIC (as a rule, the least concentration at which growth counts as inhibited) in assay [1] came to 4 µg/mL (≈ 11.9 µM); in assay [2], 1 µg/mL (≈ 2.96 µM); in [3] it was 16 µg/mL (≈ 47.4 µM); in assay [4], 1 µg/mL (≈ 2.96 µM); in assay [5], 1 µg/mL (≈ 2.96 µM); in assay [6], 2 µg/mL (≈ 5.93 µM). The results for the minimal inhibitory concentration (MIC) in assay [7], in assay [8] and in assay [9] were 2 µg/mL (≈ 5.93 µM), 1 µg/mL (≈ 2.96 µM) and 8 µg/mL (≈ 23.7 µM), respectively.

Consider `CC(=O)NC[C@H]1CN(c2ccc(C3(C#N)CC3)c(F)c2)C(=O)O1` [example 7, N-[5(S)-3-[4-(1-Cyanocyclopropan-1-yl)-3-fluorophenyl]-2-oxooxazolidin-5-ylmethyl]acetamide], for which the MIC in assay [1] is 4 µg/mL (≈ 12.6 µM); in assay [2], 0.5 µg/mL (≈ 1.58 µM); in assay [3] it was 4 µg/mL (≈ 12.6 µM); in assay [4], 0.5 µg/mL (≈ 1.58 µM); in assay [5], 0.5 µg/mL (≈ 1.58 µM); in assay [6], 1 µg/mL (≈ 3.15 µM). In addition, the MIC in assay [7] worked out at 0.5 µg/mL (≈ 1.58 µM); in [8], 1 µg/mL (≈ 3.15 µM); in assay [9], 0.5 µg/mL (≈ 1.58 µM).

Take `CC(=S)NC[C@H]1CN(c2ccc(C3(C#N)CC3)c(F)c2)C(=O)O1` [example 8, N-[5(S)-3-[4-(1-Cyanocyclopropan-1-yl)-3-fluorophenyl]-2-oxooxazolidin-5-ylmethyl]thioacetamide]: the minimal inhibitory concentration (MIC) was determined as 0.5 µg/mL (≈ 1.5 µM) in assay [1]; 0.125 µg/mL (≈ 0.375 µM) in assay [2]; 0.5 µg/mL (≈ 1.5 µM) in [3]; 0.125 µg/mL (≈ 0.375 µM) in assay [4]; 0.125 µg/mL (≈ 0.375 µM) in [5]; 0.25 µg/mL (≈ 0.75 µM) in assay [6]. Besides, the minimum inhibitory concentration (MIC) in assay [7], in assay [8] and in assay [9] was 0.25 µg/mL (≈ 0.75 µM) throughout.

Take `N#CC1(c2ccc(N3C[C@H](CNc4ccon4)OC3=O)cc2F)CC1` [example 18, 5(S)-3-[4-(1-Cyanocyclopropan-1-yl)-3-fluorophenyl]-5-[N-(1,2-isoxadiazolyl-3-yl)amino]methyloxazolidin-2-one]: the minimum inhibitory concentration (MIC) worked out at 8 µg/mL (≈ 23.4 µM) in assay [1]; 0.5 µg/mL (≈ 1.46 µM) in assay [2]; 16 µg/mL (≈ 46.7 µM) in [3]; 0.5 µg/mL (≈ 1.46 µM) in [4]; 1 µg/mL (≈ 2.92 µM) in [5]; 1 µg/mL (≈ 2.92 µM) in assay [6]. The minimum inhibitory concentration (MIC) in assay [7] and in assay [8] was 1 µg/mL (≈ 2.92 µM) each time.

Turning to `COC(=S)NC[C@H]1CN(c2ccc(C3(C#N)CC3)c(F)c2)C(=O)O1` [example 32, O-Methyl N-[5(S)-3-[4-(1-Cyanocyclopropan-1-yl)-3-fluorophenyl]-2-oxooxazolidin-5-ylmethyl]thiocarbonate], the MIC amounted to 0.5 µg/mL (≈ 1.43 µM) in assay [1]; 0.125 µg/mL (≈ 0.358 µM) in assay [2]; 2 µg/mL (≈ 5.72 µM) in assay [3]; 0.125 µg/mL (≈ 0.358 µM) in assay [4]; 0.125 µg/mL (≈ 0.358 µM) in assay [5]; 0.25 µg/mL (≈ 0.716 µM) in [6]. Besides, the MIC in assay [7] stood at 0.25 µg/mL (≈ 0.716 µM); in [8] it was 0.125 µg/mL (≈ 0.358 µM); in assay [9], 4 µg/mL (≈ 11.4 µM).
